Experimental data published in US20100184799A1, “OXADIAZOLE BETA CARBOLINE DERIVATIVES AS ANTIDIABETIC COMPOUNDS” (priority 2009, published 2010).
pEC50, pKi: −log10 of the molar value.

How the values were obtained:
SSTR3 [1] = target: T1, SSTR3 (Homo sapiens, UniProt P32745); experiment: SSTR3 functional antagonist assay: cAMP production with FSK + SS-14 in SSTR3 stable CHO cells; type: cell-based, human or mouse; parameters: […]; settings: […] FSK + 100 nM SS-14
Procedure: The effects of compounds that bind to human and murine SSTR3 with various affinities on the functional activity of the receptor were assessed by measuring cAMP production in the presence of Forskolin (FSK) along or FSK plus SS-14 in SSTR3 expressing CHO cells. FSK acts to induce cAMP production in these cells by activating adenylate cyclases, whereas SS-14 suppresses cAMP production in the SSTR3 stable cells by binding to SSTR3 and the subsequent inhibition of adenylate cyclases via an alpha subunit of GTP-binding protein (Gαi).
The amount of cAMP produced during the incubation was also quantified with the Lance cAMP assay. […] The % Inhibition of each compound was calculated using the following formula:
% Inhibition=[1−(unknown cAMP/FSK+SS-14 cAMP)]×100

SSTR3 [2] = target: T1, SSTR3; experiment: SSTR3 receptor-ligand binding assay, (3-125I-Tyr11)-SRIF-14 radioligand, CHO-K1 cell membranes; parameters: expressed in transfected cells; membranes used; settings: cloned human SSTR3, CHO-K1 membranes, 0.1 nM radioligand
Procedure: The receptor-ligand binding assays of all 5 subtype of SSTRs were performed with membranes isolated from Chinese hamster ovary (CHO)—K1 cells stably expressing the cloned human somatostatin receptors in 96-well format as previous reported.
The stable cell lines for SSTR1-SSTR5 were developed by stably transfecting with DNA for all five SSTRs using Lipofectamine. […] The assay buffer consisted of 50 mM TrisHCl (pH 7.8) with 1 mM EGTA, 5 mM MgCl2, leupeptin (10 μg/mL), pepstatin (10 μg/mL), bacitracin (200 μg/mL), and aprotinin (0.5 μg/mL). CHO—K1 cell membranes, radiolabeled somatostatin, and unlabeled test compounds were resuspended or diluted in this assay buffer. Unlabeled test compounds were examined over a range of concentrations from 0.01 nM to 10,000 nM.

T1 sequence (P32745 whole entry): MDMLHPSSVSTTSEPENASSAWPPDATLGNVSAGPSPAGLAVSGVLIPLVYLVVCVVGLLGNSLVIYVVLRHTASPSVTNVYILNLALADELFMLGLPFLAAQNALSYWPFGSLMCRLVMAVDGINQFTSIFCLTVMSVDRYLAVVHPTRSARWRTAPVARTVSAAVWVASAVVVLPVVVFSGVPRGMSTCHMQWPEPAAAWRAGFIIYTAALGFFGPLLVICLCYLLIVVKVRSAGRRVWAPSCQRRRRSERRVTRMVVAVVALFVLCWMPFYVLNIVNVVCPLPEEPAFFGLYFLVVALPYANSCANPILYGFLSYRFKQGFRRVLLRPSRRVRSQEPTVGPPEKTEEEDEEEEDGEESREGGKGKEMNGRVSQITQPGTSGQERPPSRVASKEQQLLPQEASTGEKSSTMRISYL

SMILES | pEC50 (SSTR3 [1]) | pKi (SSTR3 [2])
CCOC(=O)Cn1nc(C2(c3cnn(CC)c3)N[C@@H](c3nc(-c4ccc(F)cn4)c[nH]3)Cc3c2[nH]c2ccccc32)oc1=O (single isomer, unassigned) [Example 34] | 9.30 | 9.05
N#Cc1ccc(C2(c3nnc(O)o3)N[C@@H](c3nc(-c4ccc(F)cc4)c[nH]3)Cc3c2[nH]c2ccccc32)cc1 (mixture of isomers) [Example 13] | 7.72 | 8.04
Oc1nnc(C2(c3ccccc3)N[C@@H](c3nc(-c4ccc(F)cc4)c[nH]3)Cc3c2[nH]c2ccccc32)o1 (mixture of isomers) [Example 10] | 7.97 | 8.48
CCn1nc(C2(c3noc(C)n3)N[C@@H](c3nc(-c4ccc(F)cn4)c[nH]3)Cc3c2[nH]c2ccccc32)oc1=O (single isomer, unassigned) [Example 8] | 7.74 | 7.63
CCn1nc(C2(c3noc(C)n3)N[C@@H](c3nc(-c4ccc(F)cn4)c[nH]3)Cc3c2[nH]c2ccccc32)oc1=O (single isomer, unassigned) [Example 9] | 8.59 | 8.38
CCn1nc(C2(c3ccc(C#N)cc3)N[C@@H](c3nc(-c4ccc(F)cn4)c[nH]3)Cc3c2[nH]c2ccccc32)oc1=O (single isomer, unassigned) [Example 17] | 7.59 | –
Cn1nc(C2(c3ccccc3)NC(c3nc(-c4ccc(F)cn4)c[nH]3)Cc3c2[nH]c2ccccc32)oc1=O (single isomer, unassigned) [Example 12] | 8.23 | 8.92
Cn1cc(C2(c3nnc(O)o3)N[C@@H](c3nc(-c4ccc(F)cc4)c[nH]3)Cc3c2[nH]c2ccccc32)cn1 (single isomer, unassigned) [Example 19] | 7.32 | –
Cn1cc(C2(c3nnc(O)o3)N[C@@H](c3nc(-c4ccc(F)cn4)c[nH]3)Cc3c2[nH]c2ccccc32)cn1 (single isomer, unassigned) [Example 20] | 6.17 | –
Cn1nc(C2(c3ccc(C#N)cc3)NC(c3nc(-c4ccc(F)cc4)c[nH]3)Cc3c2[nH]c2ccccc32)oc1=O (single isomer, unassigned) [Example 15] | 7.52 | 8.70
Cn1nc(C2(c3ccccc3)NC(c3nc(-c4ccc(F)cn4)c[nH]3)Cc3c2[nH]c2ccccc32)oc1=O (single isomer, unassigned) [Example 11] | 7.13 | 7.28
Cn1cc(C2(c3nn(C)c(=O)o3)N[C@@H](c3nc(-c4ccc(F)cc4)c[nH]3)Cc3c2[nH]c2ccccc32)cn1 (single isomer, unassigned) [Example 23] | 8.64 | 8.92
Cn1cc(C2(c3nnc(O)o3)N[C@@H](c3nc(-c4ccc(F)cc4)c[nH]3)Cc3c2[nH]c2ccccc32)cn1 (single isomer, unassigned) [Example 18] | 8.96 | –
Cn1cc(C2(c3nn(C)c(=O)o3)N[C@@H](c3nc(-c4ccc(F)cc4)c[nH]3)Cc3c2[nH]c2ccccc32)cn1 (single isomer, unassigned) [Example 22] | 8.21 | –
Cn1nc(C2(c3ccccc3)N[C@@H](c3nc(-c4ccc(F)cc4)c[nH]3)Cc3c2[nH]c2ccccc32)oc1=O (single isomer, unassigned) [Example 1] | 8.42 | 9.10
Cn1nc(C2(c3ccc(C#N)cc3)NC(c3nc(-c4ccc(F)cc4)c[nH]3)Cc3c2[nH]c2ccccc32)oc1=O (single isomer, unassigned) [Example 14] | 8.27 | 8.92
CCn1nc(C2(c3ccc(C#N)cc3)N[C@@H](c3nc(-c4ccc(F)cn4)c[nH]3)Cc3c2[nH]c2ccccc32)oc1=O (single isomer, unassigned) [Example 16] | 7.96 | –
Cn1nc(C2(c3ccccc3)N[C@@H](c3nc(-c4ccc(F)cc4)c[nH]3)Cc3c2[nH]c2ccccc32)oc1=O (single isomer, unassigned) [Example 2] | 7.54 | 7.50

Continued, values first:

pEC50 (SSTR3 [1]) | pKi (SSTR3 [2]) | SMILES
9.10 | – | CSc1nnc(C2(c3cnn(C)c3)NC(c3nc(-c4ccc(F)cn4)c[nH]3)Cc3c2[nH]c2ccccc32)o1 (mixture of isomers) [Example 57]
9.22 | – | Oc1nnc(C2(c3cnn(C4CC4)c3)N[C@@H](c3nc(-c4ccc(F)cn4)c[nH]3)Cc3c2[nH]c2ccccc32)o1 (single isomer, unassigned) [Example 37]
9.10 | – | Cn1nc(C2(c3cnn(C4CC4)c3)N[C@@H](c3nc(-c4ccc(F)cn4)c[nH]3)Cc3c2[nH]c2ccccc32)oc1=O (single isomer, unassigned) [Example 59]
8.52 | – | CCn1nc(C2(c3noc(COC)n3)N[C@@H](c3nc(-c4ccc(F)cn4)c[nH]3)Cc3c2[nH]c2ccccc32)oc1=O (single isomer, unassigned) [Example 40]
7.67 | – | CCn1nnc(C2(c3nn(C)c(=O)o3)N[C@@H](c3nc(-c4ccc(F)cn4)c[nH]3)Cc3c2[nH]c2ccccc32)n1 (single isomer, unassigned) [Example 46]
5.70 | – | CCn1nnc(C2(c3nnc(O)o3)N[C@@H](c3nc(-c4ccc(F)cn4)c[nH]3)Cc3c2[nH]c2ccccc32)n1 (single isomer, unassigned) [Example 44]
9.70 | – | Cn1cc(C2(c3nnc(N)o3)N[C@@H](c3nc(-c4ccc(F)cc4)c[nH]3)Cc3c2[nH]c2ccccc32)cn1 (single isomer, unassigned) [Example 53]
7.72 | – | CCn1nc(C2(c3noc(COC)n3)N[C@@H](c3nc(-c4ccc(F)cn4)c[nH]3)Cc3c2[nH]c2ccccc32)oc1=O (single isomer, unassigned) [Example 41]
7.49 | – | CCn1nnc(C2(c3nnc(O)o3)N[C@@H](c3nc(-c4ccc(F)cn4)c[nH]3)Cc3c2[nH]c2ccccc32)n1 (single isomer, unassigned) [Example 45]
7.13 | – | CCn1nnc(C2(c3nn(C)c(=O)o3)N[C@@H](c3nc(-c4ccc(F)cn4)c[nH]3)Cc3c2[nH]c2ccccc32)n1 (single isomer, unassigned) [Example 47]
7.20 | – | CCn1nc(C2(c3nnn(C)n3)N[C@@H](c3nc(-c4ccc(F)cn4)c[nH]3)Cc3c2[nH]c2ccccc32)oc1=O (single isomer, unassigned) [Example 48]
8.72 | 8.96 | CCn1cc(C2(c3nn(C)c(=O)o3)N[C@@H](c3nc(-c4ccc(F)cc4)c[nH]3)Cc3c2[nH]c2ccccc32)cn1 (mixture of isomers) [Example 36]
8.72 | 9.05 | CSc1nnc(C2(c3cnn(C)c3)N[C@@H](c3nc(-c4ccc(F)cc4)c[nH]3)Cc3c2[nH]c2ccccc32)o1 (some centres unmarked) [Example 58]
5.97 | – | Cn1nnc(C2(c3nnc(O)o3)N[C@@H](c3nc(-c4ccc(F)cn4)c[nH]3)Cc3c2[nH]c2ccccc32)n1 (single isomer, unassigned) [Example 43]
7.75 | – | Cc1nc(C2(c3nnc(N)o3)NC(c3nc(-c4ccc(F)cc4)c[nH]3)Cc3c2[nH]c2ccccc32)no1 (mixture of isomers) [Example 56]
8.10 | 7.88 | Cn1cc(C2(c3nnc(N)o3)N[C@@H](c3nc(-c4ccc(F)cc4)c[nH]3)Cc3c2[nH]c2ccccc32)cn1 (single isomer, unassigned) [Example 52]
8.49 | – | COCc1nc(C2(c3nn(C)c(=O)o3)N[C@@H](c3nc(-c4ccc(F)cn4)c[nH]3)Cc3c2[nH]c2ccccc32)no1 (single isomer, unassigned) [Example 42]
7.61 | – | Cc1nc(C2(c3nnc(O)o3)NC(c3nc(-c4ccc(F)cc4)c[nH]3)Cc3c2[nH]c2ccccc32)no1 (mixture of isomers) [Example 38]
7.90 | – | COCc1nc(C2(c3nnc(O)o3)N[C@@H](c3nc(-c4ccc(F)cn4)c[nH]3)Cc3c2[nH]c2ccccc32)no1 (single isomer, unassigned) [Example 39]
8.74 | – | CCn1cc(C2(c3nnc(O)o3)NC(c3nc(-c4ccc(F)cc4)c[nH]3)Cc3c2[nH]c2ccccc32)cn1 (mixture of isomers) [Example 35]
